Measurements: patent publication US7569724B2, “Carbamic acid compounds comprising an amide linkage as HDAC inhibitors” (Topotarget UK Limited, priority 2000, dated 2009)
Where two headings read alike, the source gives them in different places.

Key:
[1] = system: HDAC (HeLa cell extract); assay: Primary assay: deacetylase activity, HeLa cell extract as source of HDAC; type: biochemical, human; details: HeLa cell extract
In short: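 Crude HeLa extract (freeze-thaw in 60 mM TrisCl pH 8.0, 450 mM NaCl, 30% glycerol) was incubated 1 h at 37° C with a [³H]acetyl-labelled histone H4 N-terminal peptide in 20 mM Tris pH 7.4, 10% glycerol.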

[2] = biological target: T1, human HDAC2 (Homo sapiens, UniProt Q92769); assay: Primary assay: deacetylase activity, recombinantly produced HDAC2; type: biochemical; details: for IC50: recombinant HDAC2, read-out: HDAC Inhibition (IC50 unless otherwise specified) HDAC2
T1 construct: Full length human HDAC2 was subcloned; Flag (C); His6 (from pAcHLT-A vector; purified on Ni-NTA) (N); made in house; host or cells: SF9 insect cells (baculovirus)
Text: (§1) Briefly, this assay relies on the release of radioactive acetate from a radioactively labelled histone fragment by the action of HDAC enzyme. Test compounds, which inhibit HDAC, reduce the yield of radioactive acetate. Signal (e.g., scintillation counts) measured in the presence and absence of a test compound provide an indication of that compound's ability to inhibit HDAC activity. Decreased activity indicates increased inhibition by the test compound.
(§2) The histone fragment was an N-terminal sequence from histone H4, and it was labelled with radioactively labelled acetyl groups using tritiated acetylcoenzyme A (coA) in conjunction with an enzyme which is the histone acetyltransferase domain of the transcriptional coactivator p300. […] The acetylated peptide was then separated from free acetyl coA by size exclusion chromatography on Sephadex G-15 (Sigma G-15-120), using distilled H2O as the mobile phase.
(§3) After purification of the radiolabelled histone fragment, it was incubated with a source of HDAC (e.g., an extract of HeLa cells (a rich source of HDAC), recombinantly produced HDAC1 or HDAC2) and any released acetate was extracted into an organic phase and quantitatively determined using scintillation counting. By including a test compound with the source of HDAC, that compound's ability to inhibit the HDAC was determined.
(§4) Amplification of recombinant viruses was performed according to the Pharmingen Instruction Manual.
(§5) For protein production, 2×10^7 cells were infected with the appropriate recombinant virus for 3 days. Cells were then harvested and spun at 3,000 rpm for 5 minutes. They were then washed twice in PBS and resuspended in 2 pellet volumes of lysis buffer (25 mM HEPES pH 7.9, 0.1 mM EDTA, 400 mM KCl, 10% glycerol, 0.1% NP-40, 1 mM AEBSF). Resuspended cells were frozen on dry ice and thawed at 37° C. 3 times and centrifuged for 10 minutes at 14,000 rpm. […] Incubation was carried out at 4° C. for 1 hour on a rotating wheel. The slurry was then centrifuged at 500 g for 5 minutes. Beads were washed twice in 1 ml of wash buffer (25 mM HEPES pH7.9, 0.1 mM EDTA, 150 mM KCl, 10% glycerol, 0.1% NP-40, 1 mM AEBSF). Protein was eluted 3 times in 300 μl elution buffer (25 mM HEPES pH 7.9, 0.1 mM EDTA, 250 mM KCl, 10% glycerol, 0.1% NP-40, 1 mM AEBSF) containing increasing concentrations of imidazole: 0.2 M, 0.5 M and 1 M. Each elution was performed for 5 minutes at room temperature. Eluted protein was kept in 50% glycerol at −70° C.
(§6) A source of HDAC (e.g., 2 μL of crude HeLa extract, 5 μL of HDAC1 or HDAC2; in elution buffer, as above) was incubated with 3 μL of radioactively labelled peptide along with appropriate dilutions of candidate compounds (1.5 μL) in a total volume of 150 μL of buffer (20 mM Tris pH 7.4, 10% glycerol). The reaction was carried out at 37° C. for one hour, after which the reaction was stopped by adding 20 μL of 1 M HCl/0.4 M sodium acetate. […] Radioactivity was measured using a Tri-Carb 2100TR Liquid Scintillation Analyzer (Packard).
(§7) Percent activity (% activity) for each test compound was calculated as: % activity={(S^C−B)/(S^o−B)}×100 wherein S^C denotes signal measured in the presence of enzyme and the compound being tested, S^o denotes signal measured in the presence of enzyme but in the absence of the compound being tested, and B denotes the background signal measured in the absence of both enzyme and compound being tested.

[3] = biological target: T2, human HDAC1 (Homo sapiens, UniProt Q13547); assay: Primary assay: deacetylase activity, recombinantly produced HDAC1; type: biochemical; details: recombinant HDAC1; read-out: HDAC Inhibition (IC50 unless otherwise specified) HDAC1
T2 construct: Full length human HDAC1 was cloned by PCR; Flag (C); His6 (from pAcHLT vector; purified on Ni-NTA) (N); made in house; host or cells: SF9 insect cells (baculovirus)
Text: as §1, §2, §3
Full length human HDAC1 was cloned by PCR using a λgt11 Jurkat cDNA library (Clontech-HL5012b). The amplified fragment was inserted into the EcoRI-Sall sites of pFlag-CTC vector (Sigma-E5394), in frame with the Flag tag. A second PCR was carried out in order to amplify a fragment containing the HDAC1 sequence fused to the Flag tag.
as §4, §5, §6, §7

[4] = system: HeLa cells; assay: Secondary assay: cell proliferation WST-1, HeLa; type: cell-based; details: Homo sapiens, 48 h, read-out: Cell Proliferation Inhibition WST-1 (IC50 unless otherwise specified) HeLa
In short: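 Absorbance at 450 nm (reference 690 nm); % activity vs untreated after blank subtraction, IC50 fitted with top 100 and bottom 0.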

[5] = system: K11 HPV E7 transformed human keratinocyte line; assay: Secondary assay: cell proliferation WST-1, K11; type: cell-based; details: Homo sapiens, Keratinocyte, 48 h, read-out: Cell Proliferation Inhibition WST-1 (IC50 unless otherwise specified) K11
Protocol: (§8) Compounds with HDAC inhibition activity, as determined using the primary assay, were subsequently evaluated using secondary cell-based assays. The following cell lines were used:
K11—HPV E7 transformed human keratinocyte line provided by Pidder Jansen-Duerr, Institut für Biomedizinische Alternsforschung, Innsbruck, Austria.
(§9) Cells were plated in 96-well plates at 3-10×10^3 cells/well in 100 μL of culture medium. The following day, different concentrations of candidate compounds were added and the cells incubated at 37° C. for 48 h. Subsequently, 10 μL/well of WST-1 reagent was added and the cells reincubated for 1 hour. After the incubation time, absorbance was measured.
(§10) WST-1 is a tetrazolium salt which is cleaved to formazan dye by cellular enzymes. An expansion in the number of viable cells results in an increase in the overall activity of mitochondrial dehydrogenases in the sample. This augmentation in the enzyme activity leads to an increase in the amount of formazan dye formed, which directly correlates to the number of metabolically active cells in the culture. The formazan dye produced is quantified by a scanning multiwell spectrophotometer by measuring the absorbance of the dye solution at 450 nm wavelength (reference wavelength 690 nm).
(§11) Percent activity (% activity) in reducing the number of viable cells was calculated for each test compound as: % activity={(S^C−B)/(S^o−B)}×100 wherein S^C denotes signal measured in the presence of the compound being tested, S^o denotes signal measured in the absence of the compound being tested, and B denotes the background signal measured in blank wells containing medium only.
(§12) IC50 values were calculated using the software package Prism 3.0 (GraphPad software Inc., San Diego, Calif.), setting top value at 100 and bottom value at 0.

[6] = system: JURKAT human T-cell line; assay: Secondary assay: cell proliferation WST-1, Jurkat; type: cell-based; details: Homo sapiens, 48 h, read-out: Cell Proliferation Inhibition WST-1 (IC50 unless otherwise specified) Jurkat
Protocol: as §8
JURKAT—Human T-cell line (ATCC no. TIB-152).
as §9, §10, §11, §12

[7] = read-out: HDAC Inhibition (IC50 unless otherwise specified) HeLa

T2 sequence (Q13547 whole entry): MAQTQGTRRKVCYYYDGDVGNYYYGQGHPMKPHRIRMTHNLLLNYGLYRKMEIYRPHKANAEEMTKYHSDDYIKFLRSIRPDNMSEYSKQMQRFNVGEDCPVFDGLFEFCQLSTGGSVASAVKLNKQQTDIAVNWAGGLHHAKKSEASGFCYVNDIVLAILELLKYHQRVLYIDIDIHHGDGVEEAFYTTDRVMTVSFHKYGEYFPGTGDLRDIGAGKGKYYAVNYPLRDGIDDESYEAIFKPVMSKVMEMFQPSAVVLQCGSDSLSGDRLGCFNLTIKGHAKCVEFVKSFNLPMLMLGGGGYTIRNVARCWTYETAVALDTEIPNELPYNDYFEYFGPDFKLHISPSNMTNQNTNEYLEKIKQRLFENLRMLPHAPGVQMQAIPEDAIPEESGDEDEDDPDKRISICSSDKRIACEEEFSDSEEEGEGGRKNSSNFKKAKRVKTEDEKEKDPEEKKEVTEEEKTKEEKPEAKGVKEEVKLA
T1 sequence (Q92769 whole entry): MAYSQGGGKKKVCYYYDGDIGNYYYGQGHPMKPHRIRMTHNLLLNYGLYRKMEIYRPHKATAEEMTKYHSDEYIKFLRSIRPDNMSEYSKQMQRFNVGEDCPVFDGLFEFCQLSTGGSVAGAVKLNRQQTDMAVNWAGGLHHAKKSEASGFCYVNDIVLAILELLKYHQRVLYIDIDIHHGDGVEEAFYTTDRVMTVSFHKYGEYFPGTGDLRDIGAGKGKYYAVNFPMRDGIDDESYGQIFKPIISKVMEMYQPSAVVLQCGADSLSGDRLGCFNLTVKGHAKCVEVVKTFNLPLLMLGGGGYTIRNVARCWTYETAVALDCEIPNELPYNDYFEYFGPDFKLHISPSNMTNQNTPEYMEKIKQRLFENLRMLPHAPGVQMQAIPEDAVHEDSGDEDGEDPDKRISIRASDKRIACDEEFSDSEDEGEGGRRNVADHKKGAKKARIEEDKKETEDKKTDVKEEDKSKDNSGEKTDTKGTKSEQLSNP

CN(C)c1ccc(C(=O)NCCC(=O)NO)c2ccccc12 [PX082530, 4-Dimethylamino-napthalene-1-carboxylic acid (2-hydroxycarbamoyl-ethyl)-amide]
HDAC Inhibition HeLa, percent ([1]; @ 1 μM): 13% @ 1 μM
percent HDAC inhibition at the stated concentration ([1]; comparative tables, @ 1 μM): 13% @ 1 μM
HDAC Inhibition HDAC2, percent ([2]; recombinant HDAC2, @ 5 μM): 18% @ 5 μM

O=C(CCCCCNC(=O)c1ccccc1)NO [PX083449, N-(5-Hydroxycarbamoyl-pentyl)-benzamide]
IC50 [2]: 688 nM
melting point: 102 to 104 °C

CN(C)c1ccc(C(=O)NCCCCCC(=O)NO)c2ccccc12 [PX089275, 4-Dimethylamino-napthalene-1-carboxylic acid (5-hydroxycarbamoyl-pentyl)-amide]
IC50 [1, 7]: 466 nM
IC50 ([1]; comparative tables, no unit in cell, read-out: HeLa IC50): 466 nM
IC50 [3]: 175 nM
IC50 [2]: 480 nM
IC50 [4]: 2.3 µM
melting point: 135 to 136 °C

COc1ccc(C(=O)NCCCCCC(=O)NO)cc1 [PX089276, N-(5-Hydroxycarbamoyl-pentyl)-4-methoxy-benzamide]
IC50 [1, 7]: 165 nM
IC50 [3]: 250 nM
IC50 [2]: 312 nM
IC50 [4]: 6.3 µM
melting point: 131 to 132 °C

O=C(/C=C/C=C/c1ccccc1)NC[C@H]1CC[C@H](C(=O)NO)CC1 [PX105552, 4-[((2E)(4E)-5-Phenylpenta-2,4-dienoylamino)methyl] cyclohexanecarboxylic acid hydroxyamide]
IC50 [1, 7]: 500 nM
IC50 [2]: 967 nM
IC50 [4]: 10 µM
IC50 [5]: 10 µM
IC50 [6]: 7.9 µM
melting point: 210 to 212 °C

CC(/C=C/C(=O)NCCCC(=O)NO)=C\c1ccccc1 [PX105554]
IC50 [1, 7]: 21900 nM
IC50 [2]: 31000 nM
IC50 [4]: 114 µM
IC50 [6]: 20 µM

CN(C)c1ccc(/C=C/C=C/C(=O)NCCCC(=O)NO)cc1 [PX105669]
IC50 [2]: 28000 nM

O=C(CCCCCNC(=O)c1nc2ccccc2[nH]1)NO [PX105824, 1H-Benzimidazole-2-carboxylic acid (5-hydroxycarbamoylpentyl)amide]
IC50 [1, 7]: 69 nM
IC50 [3]: 69 nM
IC50 [4]: 5.2 µM
melting point: 201 °C (dec.)

CC(/C=C/C(=O)NCCCCCC(=O)NO)=C\c1ccccc1 [PX105829, (2E,4E)-4-Methyl-5-phenylpenta-2,4-dienoic acid (5-hydroxycarbamoylpentyl)amide]
IC50 [1, 7]: 54 nM
IC50 [3]: 31 nM
IC50 [2]: 38 nM
IC50 [4]: 3.8 µM
melting point: 129 to 131 °C

O=C(/C=C/c1ccc2c(c1)OCO2)NCCCCCC(=O)NO [PX105831, (E)-3-Benzo[1,3]dioxol-5-yl-N-(5-hydroxycarbamoylpentyl)acrylamide]
IC50 [1, 7]: 33 nM
IC50 [3]: 64 nM
IC50 [2]: 69 nM
IC50 [4]: 9 µM
melting point: 191 to 193 °C

O=C(CCCCCNC(=O)C(c1ccccc1)c1ccccc1)NO [PX106489, 6-Diphenylacetylamino-hexanoic acid hydroxyamide]
IC50 [1, 7]: 3300 nM
IC50 [3]: 4000 nM
IC50 [4]: 60 µM
melting point: 55 to 56 °C

O=C(/C=C/c1cccc(NC(=O)/C=C/c2ccccc2)c1)NO [PX106513, N-Hydroxy-3-[3-(3-phenylacryloylamino)-phenyl]-acrylamide]
HDAC Inhibition HeLa, percent ([1]; @ 500 nM): 43% @ 500 nM
percent HDAC inhibition at the stated concentration ([1]; comparative tables, @ 1 μM): 43% @ 1 μM
IC50 [3]: 438 nM
melting point: 178 °C

O=C(/C=C/C#Cc1ccccc1)NCCCCCC(=O)NO [PX106525, (E)-5-Phenylpent-2-en-4-ynoic acid (5-hydroxycarbamoylpentyl)amide]
IC50 [1, 7]: 28 nM
IC50 [3]: 37 nM
IC50 [4]: 4.7 µM
IC50 [5]: 2.8 µM
IC50 [6]: 3.6 µM
melting point: 146 to 148 °C

CC(=C\c1ccccc1)/C=C(\C)C(=O)NCCCCCC(=O)NO [PX117738, (2E)(4E)-2,4-Dimethyl-5-phenylpenta-2,4-dienoic acid (5-hydroxycarbamoyl-pentyl)amide]
IC50 [1, 7]: 131 nM
IC50 [4]: 24 µM
IC50 [5]: 3.2 µM
IC50 [6]: 1.7 µM
melting point: 120 to 122 °C

O=C(CCCCCNC(=O)[C@H](Cc1c[nH]c2ccccc12)NC(=O)CCCc1c[nH]c2ccccc12)NO [PX117767, N-Hydroxy-6-[((2S)-3-(1H-indol-3-yl)-2-{[4-(1H-indol-3-yl)butanoyl]amino}propanoyl)-amino]hexanamide]
IC50 [1, 7]: 90 nM
IC50 [4]: 15 µM
IC50 [5]: 6.2 µM
IC50 [6]: 3 µM
melting point: 94 to 96 °C

O=C(CCCCCNC(=O)CC/C=C/c1ccccc1)NO [PX117797, (E)-N-[6-(Hydroxyamino)-6-oxohexyl]-5-phenyl-4-pentenamide]
IC50 [1, 7]: 688 nM
IC50 [4]: 21 µM
IC50 [5]: 21 µM
IC50 [6]: 5.6 µM
melting point: 131 to 133 °C
